Results as given in ChEMBL document CHEMBL5143628, “Enteroviral replication inhibition by N-Alkyl triazolopyrimidinone derivatives through a non-capsid binding mode” (Bioorg Med Chem Lett, 2022).
Active and inactive are the calls of the source. No cut-off for these calls is given here.

Legend:
rhinovirus A21 = experiment: Antiviral activity against Human rhinovirus A21 infected in human H1-HeLa cells assessed as reduction in virus induced cytopathic effect incubated for 3 days by MTT assay; type: functional, organism-based
Coxsackievirus B1 = experiment: Antiviral activity against Human coxsackievirus B1 infected in human H1-HeLa cells assessed as reduction in virus induced cytopathic effect incubated for 2 days by MTT assay; type: functional, organism-based; details: Enterovirus B, 48 h
rhinovirus B14 [1] = experiment: Antiviral activity against Human rhinovirus B14 infected in human H1-HeLa cells assessed as reduction in virus induced cytopathic effect incubated for 3 days by MTT assay; type: functional, organism-based
[2] = Cytotoxicity against human H1-HeLa cells assessed as reduction in cell viability by MTT assay; type: toxicity, cell-based; details: H1-HeLa cells
[3] = Antiviral activity against Human rhinovirus A71 infected in human H1-HeLa cells assessed as reduction in virus induced cytopathic effect incubated for 3 days by MTT assay; type: functional, cell-based; details: Rhinovirus A, H1-HeLa, 72 h
Poliovirus 3 = experiment: Antiviral activity against Human poliovirus 3 infected in human H1-HeLa cells assessed as reduction in virus induced cytopathic effect incubated for 2 days by MTT assay; type: functional, organism-based; details: Enterovirus C, 48 h
[4] = Selectivity index, ratio of CC50 for cytotoxicity against human H1-HeLa cells to EC50 for antiviral activity against Human rhinovirus A71 infected in human H1-HeLa cells; type: toxicity, cell-based; details: H1-HeLa cells, read-out: Ratio CC50/EC50
CYP2C19 = CYP2C19 (Homo sapiens, UniProt P33261); experiment: Inhibition of human CYP2C19 at 10 uM incubated for 20 mins in presence of NADPH regenerating system by luminescence assay relative to control; type: ADME
CYP2C19, sequence (P33261 whole entry): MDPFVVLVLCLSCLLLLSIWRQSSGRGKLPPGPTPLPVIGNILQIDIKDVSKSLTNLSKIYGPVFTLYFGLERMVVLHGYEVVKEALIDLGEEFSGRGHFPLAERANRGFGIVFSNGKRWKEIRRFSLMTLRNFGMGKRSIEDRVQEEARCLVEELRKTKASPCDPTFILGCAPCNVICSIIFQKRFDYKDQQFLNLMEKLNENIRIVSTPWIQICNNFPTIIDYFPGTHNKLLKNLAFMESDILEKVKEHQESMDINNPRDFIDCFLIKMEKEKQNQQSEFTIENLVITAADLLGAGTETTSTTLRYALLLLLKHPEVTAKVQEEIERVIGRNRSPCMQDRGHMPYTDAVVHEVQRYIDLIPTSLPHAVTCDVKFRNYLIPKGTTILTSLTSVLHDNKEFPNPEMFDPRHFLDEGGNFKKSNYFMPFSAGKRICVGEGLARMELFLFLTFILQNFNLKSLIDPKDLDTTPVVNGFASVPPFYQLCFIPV

[5] = AUCinfinity in Sprague-Dawley rat at 10 mg/kg, po by LC/MS/MS analysis; type: ADME, organism-based; set-up: time infinity, dose 10 mg/kg, route po; details: in vivo
CYP2D6 = CYP2D6 (Homo sapiens, UniProt P10635); experiment: Inhibition of human CYP2D6 at 10 uM incubated for 20 mins in presence of NADPH regenerating system by luminescence assay relative to control; type: ADME
CYP2D6, sequence (P10635 whole entry): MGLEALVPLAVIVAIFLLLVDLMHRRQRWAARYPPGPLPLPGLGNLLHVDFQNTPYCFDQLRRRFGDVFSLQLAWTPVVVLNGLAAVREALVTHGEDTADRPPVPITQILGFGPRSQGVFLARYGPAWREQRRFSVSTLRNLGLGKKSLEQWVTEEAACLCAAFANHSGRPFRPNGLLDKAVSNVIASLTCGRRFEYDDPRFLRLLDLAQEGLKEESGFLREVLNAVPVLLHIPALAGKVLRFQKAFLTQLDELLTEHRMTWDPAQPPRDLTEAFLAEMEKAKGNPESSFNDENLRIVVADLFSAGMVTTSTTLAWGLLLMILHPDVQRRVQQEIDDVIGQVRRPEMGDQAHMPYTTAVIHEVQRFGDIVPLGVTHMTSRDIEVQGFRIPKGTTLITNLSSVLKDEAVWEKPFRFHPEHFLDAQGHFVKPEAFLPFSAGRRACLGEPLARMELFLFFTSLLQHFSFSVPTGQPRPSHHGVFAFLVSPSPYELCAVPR

rhinovirus A2 = experiment: Antiviral activity against Human rhinovirus 2 infected in human H1-HeLa cells assessed as reduction in virus induced cytopathic effect incubated for 3 days by MTT assay; type: functional, organism-based; details: Rhinovirus A, 72 h
Rhinovirus A [6] = experiment: Antiviral activity against Rhinovirus A98 infected in human H1-HeLa cells assessed as reduction in virus induced cytopathic effect incubated for 3 days by MTT assay; type: functional, cell-based; details: Rhinovirus A, 98, H1-HeLa, 72 h
rhinovirus A16 = experiment: Antiviral activity against Human rhinovirus 16 infected in human H1-HeLa cells assessed as reduction in virus induced cytopathic effect incubated for 3 days by MTT assay; type: functional, organism-based; details: Rhinovirus A, 72 h
[7] = Half life in Sprague-Dawley rat at 10 mg/kg, po by LC/MS/MS analysis; type: ADME, organism-based; details: in vivo
[8] = Cytotoxicity against human H1-HeLa cells transfected with Enterovirus A71 replicon RNAs assessed as reduction in cell viability by CellTiter-Glo luminescent cell viability assay; type: toxicity, cell-based
[9] = Cmax in Sprague-Dawley rat at 10 mg/kg, po by LC/MS/MS analysis; type: ADME, organism-based; set-up: dose 10 mg/kg, route po; details: in vivo
[10] = AUClast in Sprague-Dawley rat at 10 mg/kg, po by LC/MS/MS analysis; type: ADME, organism-based; set-up: time 0 - last, dose 10 mg/kg, route po; details: in vivo
[11] = Selectivity index, ratio of CC50 for cytotoxicity against human H1-HeLa cells to EC50 for antiviral activity against Human rhinovirus B14 infected in human H1-HeLa cells; type: toxicity, cell-based; details: for selectivity ratio: H1-HeLa cells, read-out: Ratio CC50/EC50
Rhinovirus A [12] = experiment: Antiviral activity against Rhinovirus A33 infected in human H1-HeLa cells assessed as reduction in virus induced cytopathic effect incubated for 3 days by MTT assay; type: functional, cell-based; details: Rhinovirus A, 33, H1-HeLa, 72 h
rhinovirus B86 = experiment: Antiviral activity against Human rhinovirus 86 infected in human H1-HeLa cells assessed as reduction in virus induced cytopathic effect incubated for 3 days by MTT assay; type: functional, organism-based; details: Rhinovirus B, 72 h
Rhinovirus B [13] = experiment: Antiviral activity against Rhinovirus B91 infected in human H1-HeLa cells assessed as reduction in virus induced cytopathic effect incubated for 3 days by MTT assay; type: functional, organism-based; details: Rhinovirus B, 91, H1-HeLa, 72 h
Rhinovirus B [14] = experiment: Antiviral activity against Rhinovirus B27 infected in human H1-HeLa cells assessed as reduction in virus induced cytopathic effect incubated for 3 days by MTT assay; type: functional, organism-based; details: Rhinovirus B, 27, H1-HeLa, 72 h
CYP1A2 = biological target: T1, CYP1A2 (Homo sapiens, UniProt P05177); experiment: Inhibition of human CYP1A2 at 10 uM incubated for 20 mins in presence of NADPH regenerating system by luminescence assay relative to control; type: ADME
T1 sequence (P05177 whole entry): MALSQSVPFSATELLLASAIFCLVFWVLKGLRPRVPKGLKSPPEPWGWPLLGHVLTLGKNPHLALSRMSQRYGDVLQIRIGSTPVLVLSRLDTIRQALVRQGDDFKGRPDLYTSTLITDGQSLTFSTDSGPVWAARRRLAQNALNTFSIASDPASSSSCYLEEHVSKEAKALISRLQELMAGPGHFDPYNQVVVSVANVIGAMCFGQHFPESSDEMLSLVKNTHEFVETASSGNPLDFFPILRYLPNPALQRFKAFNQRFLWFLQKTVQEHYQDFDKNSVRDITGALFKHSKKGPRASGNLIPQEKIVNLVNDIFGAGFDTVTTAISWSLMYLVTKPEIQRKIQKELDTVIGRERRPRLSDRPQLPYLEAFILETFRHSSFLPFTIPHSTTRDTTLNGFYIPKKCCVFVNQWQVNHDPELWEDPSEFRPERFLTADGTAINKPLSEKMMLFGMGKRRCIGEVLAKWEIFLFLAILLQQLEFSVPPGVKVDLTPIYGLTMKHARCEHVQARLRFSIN

[15] = Metabolic stability in pooled rat liver microsomes at 1 uM incubated for 30 mins in presence of NADPH regenerating system by LC/MS/MS analysis; type: ADME, Microsome; details: 0.5 h
[16] = Tmax in Sprague-Dawley rat at 10 mg/kg, po by LC/MS/MS analysis; type: ADME, organism-based; details: in vivo
rhinovirus A1B = experiment: Antiviral activity against Rhinovirus A1B infected in human H1-HeLa cells assessed as reduction in virus induced cytopathic effect incubated for 3 days by MTT assay; type: functional, organism-based; details: Rhinovirus A, 72 h
[17] = Inhibition of Enterovirus A71 replicon RNA transfected in human H1-HeLa cells assessed as reduction in replication measured after 8 hrs by One-Glo luciferase assay; type: cell-based; details: Enterovirus A
CYP3A4 = CYP3A4 (Homo sapiens, UniProt P08684); experiment: Inhibition of human CYP3A4 at 10 uM incubated for 20 mins in presence of NADPH regenerating system by luminescence assay relative to control; type: ADME
CYP3A4, sequence (P08684 whole entry): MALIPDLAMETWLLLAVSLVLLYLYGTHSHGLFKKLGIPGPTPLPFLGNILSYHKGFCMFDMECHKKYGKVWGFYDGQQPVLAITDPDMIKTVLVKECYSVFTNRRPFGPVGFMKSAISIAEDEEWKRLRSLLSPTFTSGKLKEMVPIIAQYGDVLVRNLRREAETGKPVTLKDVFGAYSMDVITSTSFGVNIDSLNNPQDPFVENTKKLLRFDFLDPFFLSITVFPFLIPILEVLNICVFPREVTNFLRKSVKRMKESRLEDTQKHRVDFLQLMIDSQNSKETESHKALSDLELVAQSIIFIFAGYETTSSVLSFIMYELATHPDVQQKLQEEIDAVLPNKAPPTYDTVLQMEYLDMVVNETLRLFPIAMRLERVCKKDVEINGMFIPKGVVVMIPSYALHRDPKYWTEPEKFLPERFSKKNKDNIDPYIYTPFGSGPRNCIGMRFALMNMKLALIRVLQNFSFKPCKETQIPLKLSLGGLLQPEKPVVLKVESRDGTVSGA

[18] = Metabolic stability in pooled human liver microsomes at 1 uM incubated for 30 mins in presence of NADPH regenerating system by LC/MS/MS analysis; type: ADME, Microsome; details: 0.5 h
[19] = Selectivity index, ratio of CC50 for cytotoxicity against human H1-HeLa cells to EC50 for antiviral activity against Human rhinovirus A21 infected in human H1-HeLa cells; type: toxicity, cell-based; details: for selectivity ratio: H1-HeLa cells, read-out: Ratio CC50/EC50
CYP2C9 = CYP2C9 (Homo sapiens, UniProt P11712); experiment: Inhibition of human CYP2C9 at 10 uM incubated for 20 mins in presence of NADPH regenerating system by luminescence assay relative to control; type: ADME
CYP2C9, sequence (P11712 whole entry): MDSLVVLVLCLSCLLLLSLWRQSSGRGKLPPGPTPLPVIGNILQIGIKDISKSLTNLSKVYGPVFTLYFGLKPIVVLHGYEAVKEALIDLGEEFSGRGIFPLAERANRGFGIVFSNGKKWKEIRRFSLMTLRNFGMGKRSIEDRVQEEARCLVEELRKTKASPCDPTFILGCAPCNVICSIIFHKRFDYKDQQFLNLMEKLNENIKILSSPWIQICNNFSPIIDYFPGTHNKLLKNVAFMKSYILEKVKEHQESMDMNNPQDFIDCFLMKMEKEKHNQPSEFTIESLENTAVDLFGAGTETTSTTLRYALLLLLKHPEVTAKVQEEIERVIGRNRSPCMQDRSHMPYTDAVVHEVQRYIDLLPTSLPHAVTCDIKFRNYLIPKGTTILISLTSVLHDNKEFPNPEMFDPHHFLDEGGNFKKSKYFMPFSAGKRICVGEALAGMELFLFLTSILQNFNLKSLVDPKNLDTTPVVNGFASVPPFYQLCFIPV

[20] = Antiviral activity against Human rhinovirus 42 infected in human H1-HeLa cells assessed as reduction in virus induced cytopathic effect incubated for 3 days by MTT assay; type: functional, cell-based; details: Rhinovirus B, 72 h
rhinovirus B14 [21] = experiment: Antiviral activity against Human rhinovirus B14 infected in human H1-HeLa cells assessed as reduction in viral titre at 0.1 uM pretreated for 1 hr followed by viral infection and measured after 6 hrs by time-of-addition assay; type: functional, organism-based

## Cn1c(=O)c2c3c(sc2n2cnnc12)CC(C(C)(C)C)CC3 (centres undefined)
Rhinovirus A21; Rhinovirus A, H1-HeLa, 72 h
  EC50: > 100 µM
Coxsackievirus B1
  EC50: > 100 µM
Rhinovirus B14 [1]; Rhinovirus B, H1-HeLa, 72 h
  EC50: > 100 µM
[2]
  CC50: > 100 µM
[3]
  EC50: 23 µM
Poliovirus 3
  EC50: > 100 µM
[4]
  selectivity ratio: > 4.3

## CN(C)CCC=C1c2ccccc2CCc2ccccc21 [AMITRIPTYLINE]
CYP2C19
  inhibition at 20 min, 10 µM: 90.2%

## CCCn1c(=O)c2c3c(sc2n2cnnc12)CC(C(C)(C)C)CC3 (stereo in doubt)
[5]
  AUC(0-inf): 200 ng·h/mL
CYP2D6
  inhibition at 20 min, 10 µM: 1.26%
Rhinovirus A2
  EC50: 1.9 µM
Rhinovirus A [6]
  EC50: 1.9 µM
Rhinovirus A21; h1-hela
  EC50: 2 µM
Rhinovirus A16
  EC50: 1.9 µM
[7]
  half-life: 8.89 h
[8]
  CC50: > 30 µM
[9]
  Cmax: 20 ng/mL
[10]
  AUC(0-t): 180 ng·h/mL
[11]
  Ratio CC50/EC50: 37.2
Rhinovirus A [12]
  EC50: 1.5 µM
Rhinovirus B86
  EC50: 1.5 µM
Rhinovirus B [13]
  EC50: 1.7 µM
Coxsackievirus B1
  EC50: 19.8 µM
Rhinovirus B [14]
  EC50: 1.6 µM
CYP1A2
  inhibition at 20 min, 10 µM: 7.46%
Rhinovirus B14 [1]; h1-hela
  EC50: 1.8 µM
[15]
  Stability: Stable
[16]
  Tmax: 3.5 h
Rhinovirus A1B
  EC50: 1.9 µM
CYP2C19
  inhibition at 20 min, 10 µM: 7.19%
[2]
  CC50: 77.1 µM
[3]
  EC50: 1.6 µM
[17]
  IC50: 1.7 µM
CYP3A4
  inhibition at 20 min, 10 µM: 3.24%
Poliovirus 3
  EC50: 1.67 µM
[18]
  Stability: Stable
[19]
  Ratio CC50/EC50: 42.2
CYP2C9
  inhibition at 20 min, 10 µM: 11.9%
[4]
  selectivity ratio: 33.2
[20]
  EC50: 1.6 µM

## CC(C)Cn1c(=O)c2c3c(sc2n2cnnc12)CC(C(C)(C)C)CC3 (centres undefined)
Rhinovirus A21; Rhinovirus A, H1-HeLa, 72 h
  EC50: 5.1 µM
[11]
  selectivity ratio: > 23.8
Rhinovirus B14 [1]; Rhinovirus B, H1-HeLa, 72 h
  EC50: 4.2 µM
[2]
  CC50: > 100 µM
[3]
  EC50: 2.2 µM
[19]
  selectivity ratio: > 19.6
[4]
  selectivity ratio: > 45.4

## CC(C)(C)C1CCc2c(sc3c2c(=O)n(C2CC2)c2nncn32)C1 (centres undefined)
Rhinovirus A21; Rhinovirus A, H1-HeLa, 72 h
  EC50: 7.7 µM
[11]
  selectivity ratio: 2.3
Rhinovirus B14 [1]; Rhinovirus B, H1-HeLa, 72 h
  EC50: 15 µM
[2]
  CC50: 35.5 µM
[3]
  EC50: 4.3 µM
[19]
  selectivity ratio: 4.6
[4]
  selectivity ratio: 8.2

## Nc1ccc(S(=O)(=O)Nc2ccnn2-c2ccccc2)cc1 [SULFAPHENAZOLE]
CYP2C9
  inhibition at 20 min, 10 µM: 85.8%

## CCn1c(=O)c2c3c(sc2n2cnnc12)CC(C(C)(C)C)CC3 (centres undefined)
Rhinovirus A21; Rhinovirus A, H1-HeLa, 72 h
  EC50: 14.7 µM
[11]
  selectivity ratio: > 7
Coxsackievirus B1
  EC50: > 100 µM
Rhinovirus B14 [1]; Rhinovirus B, H1-HeLa, 72 h
  EC50: 14.1 µM
[2]
  CC50: > 100 µM
[3]
  EC50: 3.7 µM
Poliovirus 3
  EC50: 3.8 µM
[19]
  selectivity ratio: > 6.8
[4]
  selectivity ratio: > 27

## CCOC(=O)/C=C/[C@H](CC1CCNC1=O)NC(=O)[C@@H](CC(=O)[C@@H](NC(=O)c1cc(C)on1)C(C)C)Cc1ccc(F)cc1 (some centres undefined)
Rhinovirus B14 [21]
  Activity: Active

## CCCCCCn1c(=O)c2c3c(sc2n2cnnc12)CC(C(C)(C)C)CC3 (centres undefined)
Rhinovirus A21; Rhinovirus A, H1-HeLa, 72 h
  EC50: > 100 µM
Rhinovirus B14 [1]; Rhinovirus B, H1-HeLa, 72 h
  EC50: > 100 µM
[2]
  CC50: > 100 µM
[3]
  EC50: > 100 µM
